Experimental data taken from the CheMixHub viscosity set.

Test: xn = mol fraction of the nth substance listed

C[N+](=O)[O-] + CCO
viscosity [mPa·s]
Settings | 293.15 K | 298.15 K | 303.15 K | 313.15 K
101 kPa, x1 = 0.1074 | – | 0.9963 | – | –
101 kPa, x1 = 0.2135 | – | 0.9148 | – | –
101 kPa, x1 = 0.3174 | – | 0.84 | – | –
101 kPa, x1 = 0.4199 | – | 0.777 | – | –
101 kPa, x1 = 0.5202 | – | 0.7236 | – | –
101 kPa, x1 = 0.6192 | – | 0.6847 | – | –
101 kPa, x1 = 0.7167 | – | 0.6557 | – | –
101 kPa, x1 = 0.8126 | – | 0.6418 | – | –
101 kPa, x1 = 0.9071 | – | 0.637 | – | –
101.33 kPa, x2 = 0.0501 | 0.625 | – | 0.553 | 0.501
101.33 kPa, x2 = 0.1001 | 0.609 | – | 0.538 | 0.486
101.33 kPa, x2 = 0.15 | 0.602 | – | 0.53 | 0.477
101.33 kPa, x2 = 0.2 | 0.601 | – | 0.527 | 0.472
101.33 kPa, x2 = 0.2501 | 0.604 | – | 0.527 | 0.471
101.33 kPa, x2 = 0.3001 | 0.612 | – | 0.531 | 0.472
101.33 kPa, x2 = 0.3502 | 0.622 | – | 0.538 | 0.476
101.33 kPa, x2 = 0.4008 | 0.636 | – | 0.547 | 0.482
101.33 kPa, x2 = 0.4501 | 0.653 | – | 0.561 | 0.491
101.33 kPa, x2 = 0.5001 | 0.672 | – | 0.577 | 0.502
101.33 kPa, x2 = 0.55 | 0.695 | – | 0.594 | 0.516
101.33 kPa, x2 = 0.6 | 0.72 | – | 0.612 | 0.531
101.33 kPa, x2 = 0.65 | 0.75 | – | 0.633 | 0.547
101.33 kPa, x2 = 0.7 | 0.785 | – | 0.665 | 0.569
101.33 kPa, x2 = 0.75 | 0.825 | – | 0.698 | 0.595
101.33 kPa, x2 = 0.8 | 0.872 | – | 0.732 | 0.625
101.33 kPa, x2 = 0.85 | 0.936 | – | 0.782 | 0.662
101.33 kPa, x2 = 0.9 | 1.006 | – | 0.835 | 0.705
101.33 kPa, x2 = 0.95 | 1.086 | – | 0.901 | 0.759

C[N+](=O)[O-] + CCOC(C)=O
298.15 K, 101 kPa
Settings | viscosity [mPa·s]
x1 = 0.1688 | 0.4555
x1 = 0.3141 | 0.4808
x1 = 0.4395 | 0.5046
x1 = 0.55 | 0.526
x1 = 0.6469 | 0.5465
x1 = 0.733 | 0.5651
x1 = 0.8102 | 0.5828
x1 = 0.8801 | 0.5995
x1 = 0.9429 | 0.6154

CC(=O)c1ccc(C)cc1 + CN(C)c1ccccc1
viscosity [mPa·s], 101 kPa
Settings | 303.15 K | 308.15 K
x2 = 0.0481 | 1.541 | 1.493
x2 = 0.0942 | 1.512 | 1.462
x2 = 0.1558 | 1.478 | 1.428
x2 = 0.2311 | 1.442 | 1.39
x2 = 0.2972 | 1.411 | 1.359
x2 = 0.3584 | 1.382 | 1.33
x2 = 0.4254 | 1.356 | 1.303
x2 = 0.4949 | 1.331 | 1.275
x2 = 0.5492 | 1.31 | 1.252
x2 = 0.5964 | 1.295 | 1.234
x2 = 0.6887 | 1.264 | 1.204
x2 = 0.7635 | 1.24 | 1.181
x2 = 0.8596 | 1.213 | 1.149

CC(=O)c1ccc(C)cc1 + CNC(C)=O
308.15 K, 101 kPa
Settings | viscosity [mPa·s]
x1 = 0.0617 | 3.091
x1 = 0.1321 | 2.867
x1 = 0.2004 | 2.666
x1 = 0.2836 | 2.469
x1 = 0.3629 | 2.286
x1 = 0.4632 | 2.08
x1 = 0.5582 | 1.927
x1 = 0.689 | 1.722
x1 = 0.8305 | 1.588

[Br-].[Br-].[Br-].[Sb+3] + CNc1ccccc1
323.15 K, 101 kPa
Settings | viscosity [mPa·s]
x1 = 0.25 | 21.03
x1 = 0.333 | 107.7
x1 = 0.4 | 507
x1 = 0.45 | 1423
x1 = 0.5 | 2867
x1 = 0.53 | 3472
x1 = 0.55 | 3692
x1 = 0.57 | 3331
x1 = 0.6 | 2686
x1 = 0.65 | 1275

CCCCC(CC)COP(=O)(O)OCC(CC)CCCC (stereo not given) + CO
303.15 K, 101 kPa
Settings | viscosity [mPa·s]
x1 = 0.0413 | 1.349
x1 = 0.0751 | 2.075
x1 = 0.1088 | 2.893
x1 = 0.1723 | 4.725
x1 = 0.2681 | 7.099
x1 = 0.3639 | 9.284
x1 = 0.4602 | 11.18
x1 = 0.6161 | 13.99
x1 = 0.7023 | 15.23
x1 = 0.8292 | 17.17
x1 = 0.928 | 18.67

C[N+](=O)[O-] + CO
viscosity [mPa·s]
Settings | 293.15 K | 298.15 K | 303.15 K | 313.15 K
101 kPa, x1 = 0.0771 | – | 0.5277 | – | –
101 kPa, x1 = 0.1586 | – | 0.5151 | – | –
101 kPa, x1 = 0.216 | – | 0.503 | – | –
101 kPa, x1 = 0.238 | – | 0.502 | – | –
101 kPa, x1 = 0.24 | – | 0.501 | – | –
101 kPa, x1 = 0.244 | – | 0.5 | – | –
101 kPa, x1 = 0.2441 | – | 0.5082 | – | –
101 kPa, x1 = 0.3345 | – | 0.5081 | – | –
101 kPa, x1 = 0.4298 | – | 0.5102 | – | –
101 kPa, x1 = 0.496 | – | 0.495 | – | –
101 kPa, x1 = 0.5305 | – | 0.5169 | – | –
101 kPa, x1 = 0.539 | – | 0.497 | – | –
101 kPa, x1 = 0.579 | – | 0.5 | – | –
101 kPa, x1 = 0.6375 | – | 0.5265 | – | –
101 kPa, x1 = 0.7509 | – | 0.5426 | – | –
101 kPa, x1 = 0.861 | – | 0.55 | – | –
101 kPa, x1 = 0.863 | – | 0.55 | – | –
101 kPa, x1 = 0.8715 | – | 0.5721 | – | –
101 kPa, x1 = 0.875 | – | 0.554 | – | –
101.33 kPa, x2 = 0.0503 | 0.617 | – | 0.551 | 0.493
101.33 kPa, x2 = 0.1004 | 0.596 | – | 0.528 | 0.473
101.33 kPa, x2 = 0.15 | 0.575 | – | 0.511 | 0.458
101.33 kPa, x2 = 0.2003 | 0.561 | – | 0.498 | 0.445
101.33 kPa, x2 = 0.2501 | 0.552 | – | 0.489 | 0.435
101.33 kPa, x2 = 0.3 | 0.542 | – | 0.479 | 0.427
101.33 kPa, x2 = 0.3502 | 0.536 | – | 0.474 | 0.421
101.33 kPa, x2 = 0.4 | 0.531 | – | 0.469 | 0.416
101.33 kPa, x2 = 0.4501 | 0.527 | – | 0.464 | 0.412
101.33 kPa, x2 = 0.5 | 0.525 | – | 0.461 | 0.408
101.33 kPa, x2 = 0.55 | 0.524 | – | 0.459 | 0.406
101.33 kPa, x2 = 0.6001 | 0.524 | – | 0.459 | 0.405
101.33 kPa, x2 = 0.65 | 0.525 | – | 0.458 | 0.405
101.33 kPa, x2 = 0.7 | 0.526 | – | 0.461 | 0.406
101.33 kPa, x2 = 0.7501 | 0.53 | – | 0.463 | 0.409
101.33 kPa, x2 = 0.8 | 0.538 | – | 0.468 | 0.412
101.33 kPa, x2 = 0.8501 | 0.545 | – | 0.474 | 0.417
101.33 kPa, x2 = 0.9 | 0.553 | – | 0.482 | 0.423
101.33 kPa, x2 = 0.95 | 0.566 | – | 0.491 | 0.432

N + CO
viscosity [mPa·s], 100 kPa
Settings | 303 K | 313 K
x1 = 0.16 | 0.48 | 0.4
x1 = 0.23 | 0.48 | 0.39

C[N+](=O)[O-] + COC(C)=O
298.15 K, 101 kPa
Settings | viscosity [mPa·s]
x1 = 0.1415 | 0.4094
x1 = 0.271 | 0.4445
x1 = 0.3891 | 0.4757
x1 = 0.498 | 0.5048
x1 = 0.5977 | 0.5313
x1 = 0.6903 | 0.5553
x1 = 0.7763 | 0.5776
x1 = 0.8562 | 0.5968
x1 = 0.9303 | 0.6147

C[N+](=O)[O-] + CS(C)=O
viscosity [mPa·s], 101.3 kPa
Settings | x2 = 0.1135 | x2 = 0.117 | x2 = 0.2337 | x2 = 0.2468 | x2 = 0.432 | x2 = 0.4324 | x2 = 0.5837 | x2 = 0.5943 | x2 = 0.812 | x2 = 0.8156
298 K | 0.726 | – | 0.823 | – | 1.014 | – | – | 1.229 | 1.613 | –
318 K | – | 0.5753 | – | 0.6471 | – | 0.7717 | 0.8878 | – | – | 1.12
